Reference: US8609836B2, “4-aryl-2-anilino-pyrimidines” (Janssen Pharmaceutica NV, priority 2008, dated 2013)

Legend:
MDA-MB-231 = assay: Cellular proliferation assay (Alamar blue), MDA-MB-231; type: cell-based; conditions: Homo sapiens, 10% FCS, 72 hours with compound, Alamar blue 24 h, read-out: MDA/MB231 (cellular proliferation assay, Table 4) (converted)
How it was run: (§1)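 Alamar blue fluorescence (544/590 nm) measured viable cells after 72 h compound exposure; dye incubation 4 h (HCT-116), 6 h (U87-MG) or 24 h (A2780, MDA-MB-231). Cells pre-seeded 24 h, grown in 10% FCS, 37° C, 5% CO2; effect expressed relative to control cells.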

CDK1/CyclinB (h) = CDK1/CyclinB (h) (Homo sapiens, UniProt P06493); assay: CDK1/CyclinB human kinase inhibition, Invitrogen's FRET assay (Z'lyte); type: biochemical; conditions: read-out: CDK1 pIC50 (converted)
Chain of CDK1/CyclinB (h) (P06493 whole entry): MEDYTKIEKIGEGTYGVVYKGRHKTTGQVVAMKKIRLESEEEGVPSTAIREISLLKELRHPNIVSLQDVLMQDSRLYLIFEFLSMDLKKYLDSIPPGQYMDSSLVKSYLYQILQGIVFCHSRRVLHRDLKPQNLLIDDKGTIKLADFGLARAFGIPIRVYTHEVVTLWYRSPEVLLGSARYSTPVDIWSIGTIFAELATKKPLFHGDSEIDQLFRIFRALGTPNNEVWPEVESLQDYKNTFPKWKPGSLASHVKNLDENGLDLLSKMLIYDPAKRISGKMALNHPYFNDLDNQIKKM
Chain of CDK1/CyclinB (h) (P14635 whole entry partner): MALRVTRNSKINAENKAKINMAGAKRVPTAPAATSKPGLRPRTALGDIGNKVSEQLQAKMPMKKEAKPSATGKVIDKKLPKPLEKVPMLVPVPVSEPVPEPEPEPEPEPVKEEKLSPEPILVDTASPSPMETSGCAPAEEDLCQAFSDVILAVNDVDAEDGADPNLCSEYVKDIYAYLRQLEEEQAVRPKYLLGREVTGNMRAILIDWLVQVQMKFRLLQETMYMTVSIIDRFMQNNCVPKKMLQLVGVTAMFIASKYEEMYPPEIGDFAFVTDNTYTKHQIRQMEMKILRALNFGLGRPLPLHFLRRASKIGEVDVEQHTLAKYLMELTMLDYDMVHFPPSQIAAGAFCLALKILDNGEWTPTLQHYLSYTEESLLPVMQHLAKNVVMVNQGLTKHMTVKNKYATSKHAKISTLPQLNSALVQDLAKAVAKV
How it was run: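 Read-out is the 460 nm/538 nm emission ratio (390 nm excitation) after a 60 min protease development step. Before that, 10 μM ATP and 2 μM Z'lyte Ser/Thr peptide 12 react 60 min at room temperature with 0.2 μg/ml human CDK1/CyclinB in Hepes pH 7.5 containing MgCl2, EGTA and Brij-35.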

PLK1 T210D (h) = PLK1 T210D (h) (Homo sapiens, UniProt P53350, T210D); assay: PLK1 human kinase inhibition, SPA; type: biochemical; conditions: read-out: PLK1 pIC50 (converted)
Chain of PLK1 T210D (h) (P53350 whole entry T210D): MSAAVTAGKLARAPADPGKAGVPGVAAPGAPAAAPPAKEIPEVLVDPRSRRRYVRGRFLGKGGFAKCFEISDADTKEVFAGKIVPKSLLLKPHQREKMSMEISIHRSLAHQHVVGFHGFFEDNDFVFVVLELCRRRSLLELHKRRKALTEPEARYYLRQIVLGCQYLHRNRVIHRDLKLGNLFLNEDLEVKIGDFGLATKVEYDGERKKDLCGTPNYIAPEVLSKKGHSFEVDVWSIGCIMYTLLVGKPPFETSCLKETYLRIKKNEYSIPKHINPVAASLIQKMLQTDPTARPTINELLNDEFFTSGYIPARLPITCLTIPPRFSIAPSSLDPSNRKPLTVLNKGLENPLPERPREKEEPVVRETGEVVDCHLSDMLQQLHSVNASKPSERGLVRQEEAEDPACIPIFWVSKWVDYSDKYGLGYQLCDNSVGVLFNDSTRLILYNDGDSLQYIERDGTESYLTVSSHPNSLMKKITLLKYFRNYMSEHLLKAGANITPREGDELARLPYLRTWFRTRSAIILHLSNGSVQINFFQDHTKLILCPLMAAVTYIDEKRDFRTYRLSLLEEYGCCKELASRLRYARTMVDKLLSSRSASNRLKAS
How it was run: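 Kinase incubated 40 min at room temperature with 0.1 μM ATP (2 nM [γ-33P]ATP tracer), 2 μM biotinylated peptide, pH 8.0 Hepes buffer with 2 mM MnCl2 and 1 mM DTT; enzyme at 0.125 ng/ml. Stopped with EDTA; 33P-peptide bound to streptavidin scintillant beads and imaged.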

U87-MG = assay: Cellular proliferation assay (Alamar blue), U87-MG; type: cell-based; conditions: Homo sapiens, U-87 MG; 10% FCS; 72 hours with compound; Alamar blue 6 h; read-out: U87-MG (cellular proliferation assay, Table 4) (converted)
How it was run: as §1

A2780 = assay: Cellular proliferation assay (Alamar blue), A2780; type: cell-based; conditions: Homo sapiens, 10% FCS, 72 hours with compound, Alamar blue 24 h, read-out: A2780 (cellular proliferation assay, Table 4) (converted)
How it was run: as §1

PLK2 (h) = PLK2 (h) (Homo sapiens, UniProt Q9NYY3); assay: PLK2 human kinase inhibition, SPA; type: biochemical; conditions: read-out: PLK2 pIC50 (converted)
Chain of PLK2 (h) (Q9NYY3 whole entry): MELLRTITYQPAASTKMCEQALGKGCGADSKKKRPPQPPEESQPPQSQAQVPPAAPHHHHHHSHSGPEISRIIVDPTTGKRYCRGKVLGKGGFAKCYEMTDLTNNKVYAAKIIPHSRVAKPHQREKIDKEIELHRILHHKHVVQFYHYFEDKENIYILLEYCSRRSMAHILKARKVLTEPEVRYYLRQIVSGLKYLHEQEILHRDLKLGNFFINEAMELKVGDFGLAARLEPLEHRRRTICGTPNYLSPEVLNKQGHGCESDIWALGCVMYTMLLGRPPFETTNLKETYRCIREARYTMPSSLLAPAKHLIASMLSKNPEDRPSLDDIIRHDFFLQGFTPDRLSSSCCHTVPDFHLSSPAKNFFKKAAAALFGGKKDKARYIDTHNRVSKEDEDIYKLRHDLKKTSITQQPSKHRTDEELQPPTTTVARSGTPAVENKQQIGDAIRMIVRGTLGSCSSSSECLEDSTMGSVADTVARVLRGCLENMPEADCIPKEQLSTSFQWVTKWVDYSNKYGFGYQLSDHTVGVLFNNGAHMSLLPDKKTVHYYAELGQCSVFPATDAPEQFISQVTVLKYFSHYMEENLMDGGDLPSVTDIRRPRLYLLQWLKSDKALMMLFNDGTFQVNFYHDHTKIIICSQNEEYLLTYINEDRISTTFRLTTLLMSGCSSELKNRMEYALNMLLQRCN
How it was run: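 33P incorporation into a biotinylated peptide (2 μM) was captured on streptavidin PVT beads and imaged on Leadseeker. Enzyme at 30 μg/ml, ATP 0.1 μM with 2 nM [γ-33P]ATP, Hepes pH 8.0 with MnCl2 and DTT. Incubation was 20 min at room temperature.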

H1299 = assay: Cellular proliferation assay (Alamar blue), H1299; type: cell-based; conditions: Homo sapiens, NCI-H1299; 10% FCS; 72 hours with compound; Alamar blue 4 h
How it was run: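 This proliferation assay on NCI-H1299 cells used an initial 24-hour compound-free incubation after seeding, followed by 72 hours of compound treatment with 10% FCS serum at 37° C. and 5% (v/v) CO2. Viable cells were quantified by a 4 h Alamar blue incubation and fluorescent plate reading at 544 nm/590 nm, and effects were expressed relative to control cells.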

PLK3 (h) = PLK3 (h) (Homo sapiens, UniProt Q9H4B4); assay: PLK3 human kinase inhibition, SPA; type: biochemical; conditions: read-out: PLK3 pIC50 (converted)
Chain of PLK3 (h) (Q9H4B4 whole entry): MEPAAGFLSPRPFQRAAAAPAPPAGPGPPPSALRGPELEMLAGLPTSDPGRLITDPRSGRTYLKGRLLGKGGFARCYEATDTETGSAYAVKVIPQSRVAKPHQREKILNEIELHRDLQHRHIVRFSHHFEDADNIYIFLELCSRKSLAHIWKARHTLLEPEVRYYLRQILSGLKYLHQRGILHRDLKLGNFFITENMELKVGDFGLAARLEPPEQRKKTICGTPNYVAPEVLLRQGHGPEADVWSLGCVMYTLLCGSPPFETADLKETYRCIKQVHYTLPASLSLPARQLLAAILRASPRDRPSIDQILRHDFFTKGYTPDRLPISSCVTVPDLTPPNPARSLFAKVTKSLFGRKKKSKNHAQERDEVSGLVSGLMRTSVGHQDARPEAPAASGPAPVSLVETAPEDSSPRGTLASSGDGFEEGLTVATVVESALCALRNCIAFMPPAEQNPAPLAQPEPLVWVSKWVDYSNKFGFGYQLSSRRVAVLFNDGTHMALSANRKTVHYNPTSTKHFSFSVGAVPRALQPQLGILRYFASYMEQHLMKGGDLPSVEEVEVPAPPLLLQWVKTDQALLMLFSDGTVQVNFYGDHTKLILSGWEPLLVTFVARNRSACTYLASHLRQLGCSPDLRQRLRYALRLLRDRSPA
How it was run: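 Radiometric scintillation proximity format at pH 8.0 (Hepes, MnCl2, DTT). The 2 μM biotin-peptide substrate is phosphorylated by PLK3 (h) (30 μg/ml) using 0.1 μM ATP traced with 33P, for 20 min at room temperature. EDTA stop; phosphopeptide captured on streptavidin beads and imaged.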

PLK4 (h) = PLK4 (h) (Homo sapiens, UniProt O00444); assay: PLK-4 human kinase inhibition, scintillation proximity assay (SPA); type: biochemical; conditions: read-out: PLK4 pIC50 (converted)
Chain of PLK4 (h) (O00444 whole entry): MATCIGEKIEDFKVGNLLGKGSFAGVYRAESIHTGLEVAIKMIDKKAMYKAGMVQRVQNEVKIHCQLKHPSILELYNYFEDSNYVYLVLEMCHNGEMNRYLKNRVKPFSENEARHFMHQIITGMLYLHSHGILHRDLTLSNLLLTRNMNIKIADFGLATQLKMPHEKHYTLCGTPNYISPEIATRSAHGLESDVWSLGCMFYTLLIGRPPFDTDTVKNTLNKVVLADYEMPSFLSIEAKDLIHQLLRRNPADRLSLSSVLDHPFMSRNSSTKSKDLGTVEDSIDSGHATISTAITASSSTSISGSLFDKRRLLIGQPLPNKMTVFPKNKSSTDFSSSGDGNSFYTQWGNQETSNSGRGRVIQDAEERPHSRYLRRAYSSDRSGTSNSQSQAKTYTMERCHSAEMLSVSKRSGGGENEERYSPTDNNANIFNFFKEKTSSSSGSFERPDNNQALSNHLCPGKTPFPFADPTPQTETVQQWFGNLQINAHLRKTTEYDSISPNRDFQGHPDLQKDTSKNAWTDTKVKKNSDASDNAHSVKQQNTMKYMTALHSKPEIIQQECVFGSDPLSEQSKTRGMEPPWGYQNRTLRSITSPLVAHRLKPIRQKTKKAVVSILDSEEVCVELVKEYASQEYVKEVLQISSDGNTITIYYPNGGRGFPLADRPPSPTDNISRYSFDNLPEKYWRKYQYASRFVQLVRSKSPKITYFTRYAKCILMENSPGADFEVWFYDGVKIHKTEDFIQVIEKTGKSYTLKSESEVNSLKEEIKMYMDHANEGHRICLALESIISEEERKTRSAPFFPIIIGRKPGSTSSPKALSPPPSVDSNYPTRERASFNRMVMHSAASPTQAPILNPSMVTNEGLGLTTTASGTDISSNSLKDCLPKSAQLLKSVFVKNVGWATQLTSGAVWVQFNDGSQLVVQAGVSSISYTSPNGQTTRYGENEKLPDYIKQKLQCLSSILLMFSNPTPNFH

| Structure (SMILES) | IC50 (MDA-MB-231) [µM] | IC50 (CDK1/CyclinB (h)) [µM] | IC50 (PLK1 T210D (h)) [µM] | IC50 (U87-MG) [µM] | IC50 (A2780) [µM] | IC50 (PLK2 (h)) [µM] | IC50 (H1299) [µM] | IC50 (PLK3 (h)) [µM] | IC50 (PLK4 (h)) [µM] |
| --- | --- | --- | --- | --- | --- | --- | --- | --- | --- |
| C[C@@H]1NCc2ccc(cc2)Nc2nccc(n2)-c2cccc(c2)CNC1=O [Compound 190] | > 10 | 6.46 | > 10 | > 10 | > 10 | > 10 | > 10 | > 10 | > 10 |
| COc1ccc2cc1CN(C)CCNC(=O)CN1CCN(CC1)Cc1cc(NCCc3ccccc3)cc(c1)Nc1nccc-2n1 [Compound 138] | 5.89 | > 10 | > 10 | 3.24 | 5.5 | > 3.02 | 10 | > 10 | 2.14 |
| CC(C)(C)O[C@@H]1C[C@H]2C(=O)NCc3cccc(c3)-c3ccnc(n3)Nc3ccccc3CN2C1 [Compound 58] | > 10 | > 10 | > 10 | > 10 | > 10 | > 10 | > 10 | > 10 | > 10 |
| CC(C)Nc1cc2cc(c1)Nc1nccc(n1)-c1ccc(cc1)CN(C)CCCNC(=O)[C@@H]1CCCN1C2 [Compound 151] | > 10 | > 10 | > 10 | 7.59 | > 10 | > 3.02 | > 10 | > 10 | 0.646 |
| C[C@@H]1NCc2cccc(c2)-c2ccnc(n2)Nc2ccc(N3CCOCC3)c(c2)CNC1=O [Compound 101] | 8.13 | > 10 | > 10 | 5.01 | 4.68 | > 10 | 6.61 | > 10 | 1.82 |
| O=C1CN2CCN(CC2)Cc2cc(ccc2N2CCOCC2)Nc2nccc(n2)-c2cccc(c2)CN1 [Compound 20] | > 3.02 | > 10 | > 10 | > 10 | > 10 | > 10 | > 10 | > 10 | 5.25 |
| CN1CCN(C(=O)c2cc3cc(c2)Nc2nccc(n2)-c2cccc(c2)CNC(=O)[C@@H]2CCCN2C3)CC1 [Compound 34] | > 10 | 1.23 | > 10 | 8.71 | > 10 | > 10 | 6.17 | > 10 | 0.186 |
| CN1CCNC(=O)[C@@H]2CCCN2Cc2cccc(c2)Nc2nccc(n2)-c2ccc(cc2)C1 [Compound 160] | > 10 | > 10 | > 10 | > 10 | > 10 | > 3.02 | > 10 | 9.33 | 1.55 |

The next lines start with the values.

| IC50 (MDA-MB-231) [µM] | IC50 (CDK1/CyclinB (h)) [µM] | IC50 (PLK1 T210D (h)) [µM] | IC50 (U87-MG) [µM] | IC50 (A2780) [µM] | IC50 (PLK2 (h)) [µM] | IC50 (H1299) [µM] | IC50 (PLK3 (h)) [µM] | IC50 (PLK4 (h)) [µM] | Structure (SMILES) |
| --- | --- | --- | --- | --- | --- | --- | --- | --- | --- |
| > 10 | > 10 | > 10 | > 10 | > 10 | > 10 | > 10 | > 10 | 1.02 | C[C@@H]1NCc2ccc(Cl)c(c2)Nc2nccc(n2)-c2cccc(c2)CNC1=O [Compound 186] |
| > 10 | > 10 | > 10 | > 10 | > 10 | > 10 | > 10 | > 10 | > 10 | O=C1CN2CCN(CC2)Cc2ccc(cc2)Nc2nccc(n2)-c2cccc(c2)CN1 [Compound 193] |
| > 10 | 4.79 | > 10 | > 10 | > 10 | 2.88 | > 10 | > 10 | 1.62 | CN1CCNC(=O)CN2CCN(CC2)Cc2cccc(c2)Nc2nccc(n2)-c2ccc(cc2)C1 [Compound 134] |
